Experiment [1] deals with T98G. The experiment in a line: Antiproliferative activity against human T98G cells after 24 hrs by EZ-Tox assay. The class given is functional, cell-based.
The subject of experiment [2] is T98G. The experiment in a line: Antiproliferative activity against human T98G cells assessed as cell viability after 72 hrs by MTT assay. The class given is functional, cell-based. (Tetrazolium dyes change colour on reduction, which living cells bring about.)
Experiment [3] deals with T98G. Briefly: Induction of apoptosis in human T98G cells assessed as increase of cytochrome-c protein level at 200 to 400 nM after 10 to 24 hrs by Western blot analysis. The class given is functional, cell-based.
Experiment [4] concerns T98G. Briefly: Induction of apoptosis in human T98G cells assessed as increase of cleaved caspase-8 level at 200 to 400 nM after 10 to 24 hrs by Western blot analysis. The class given is functional, cell-based.
The test system of experiment [5] is T98G. The experiment in a line: Induction of apoptosis in human T98G cells assessed as decrease in cell viability at 400 nM after 24 hrs using propidium iodide /Hoechst staining by FACS analysis in presence of NAC (reference value: 2.9%). The experiment is classed as functional. Background: A flow cytometer gives signals particle by particle.
Experiment [6] deals with T98G. The experiment in a line: Induction of apoptosis in human T98G cells assessed as increase of ROS level at 200 to 400 nM after 10 hrs using DCFH-DA staining by fluorescence microscopic analysis in presence of NAC. The class given is functional, cell-based.
Experiment [7] relates to T98G. The experiment in a line: Induction of apoptosis in human T98G cells assessed as late-stage apoptotic cells at 200 nM after 24 hrs using annexin V/propidium iodide staining by FACS analysis. The class given is functional.
Experiment [8] deals with T98G. Briefly: Induction of apoptosis in human T98G cells assessed as necrotic cells at 400 nM after 24 hrs using annexin V/propidium iodide staining by FACS analysis. The class given is functional.
Experiment [9] concerns T98G. Briefly: Induction of apoptosis in human T98G cells assessed as increase of cleaved PARP level at 200 to 400 nM after 10 to 24 hrs by Western blot analysis. The class given is functional, cell-based. A general note: A western blot detects proteins with antibodies after separation by electrophoresis.
Experiment [10] relates to T98G. Briefly: Induction of apoptosis in human T98G cells assessed as increase of ROS level at 200 to 400 nM after 10 hrs using DCFH-DA staining by fluorescence microscopic analysis. The class given is functional, cell-based.
Experiment [11] deals with T98G. The experiment in a line: Induction of apoptosis in human T98G cells assessed as decrease of Bcl-2 level at 200 to 400 nM after 10 to 24 hrs by Western blot analysis. The class given is functional, cell-based.
Experiment [12] deals with T98G. The experiment in a line: Induction of apoptosis in human T98G cells assessed as increase of ROS level at 400 nM after 8 hrs using DCFH-DA staining by FACS analysis in presence of NAC (reference value: 2.4%). The experiment is classed as functional.
The test system of experiment [13] is T98G. The experiment in a line: Induction of apoptosis in human T98G cells assessed as increase of cleaved caspase-9 level at 200 to 400 nM after 10 to 24 hrs by Western blot analysis. The class given is functional, cell-based.
Experiment [14] concerns T98G. The experiment in a line: Induction of apoptosis in human T98G cells assessed as decrease in cell viability after 24 hrs using propidium iodide /Hoechst staining by FACS analysis. The experiment is classed as functional, cell-based.
In experiment [15] the test system is T98G. The experiment in a line: Induction of apoptosis in human T98G cells assessed as increase of ROS level at 400 nM after 8 hrs using DCFH-DA staining by FACS analysis (reference value: 2.4%). The class given is functional.
The subject of experiment [16] is T98G. Briefly: Induction of apoptosis in human T98G cells assessed as increase of Bax level at 200 to 400 nM after 10 to 24 hrs by Western blot analysis. The class given is functional, cell-based.
For experiment [17], the system named is T98G. The experiment in a line: Induction of apoptosis in human T98G cells assessed as necrotic cells at 200 nM after 24 hrs using annexin V/propidium iodide staining by FACS analysis. The experiment is classed as functional.
Experiment [18] relates to T98G. Briefly: Induction of apoptosis in human T98G cells assessed as decrease in cell viability at 200 nM after 24 hrs using propidium iodide /Hoechst staining by FACS analysis in presence of NAC (reference value: 2.9%). The class given is functional.
For experiment [19], the system named is T98G. The experiment in a line: Induction of apoptosis in human T98G cells assessed as increase of cleaved caspase-3 level at 200 to 400 nM after 10 to 24 hrs by Western blot analysis. The class given is functional, cell-based.
In experiment [20] the test system is T98G. Briefly: Induction of apoptosis in human T98G cells assessed as increase of ROS level at 200 nM after 8 hrs using DCFH-DA staining by FACS analysis in presence of NAC (reference value: 2.4%). The class given is functional.
Experiment [21] concerns T98G. The experiment in a line: Induction of apoptosis in human T98G cells assessed as late-stage apoptotic cells at 400 nM after 24 hrs using annexin V/propidium iodide staining by FACS analysis. The experiment is classed as functional.
Experiment [22] relates to T98G. The experiment in a line: Induction of apoptosis in human T98G cells assessed as early-stage apoptotic cells at 400 nM after 24 hrs using annexin V/propidium iodide staining by FACS analysis. The class given is functional.
In experiment [23] the test system is T98G. Briefly: Induction of apoptosis in human T98G cells assessed as decrease in cell viability at 400 nM after 24 hrs using propidium iodide /Hoechst staining by FACS analysis (reference value: 2.9%). The experiment is classed as functional.
For experiment [24], the system named is T98G. The experiment in a line: Induction of apoptosis in human T98G cells assessed as decrease in cell viability at 200 nM after 24 hrs using propidium iodide /Hoechst staining by FACS analysis (reference value: 2.9%). The experiment is classed as functional.
Experiment [25] deals with T98G. Briefly: Induction of apoptosis in human T98G cells assessed as increase of AIF level at 200 to 400 nM after 10 to 24 hrs by Western blot analysis. The class given is functional, cell-based.
For experiment [26], the system named is T98G. Briefly: Induction of apoptosis in human T98G cells assessed as increase of ROS level at 200 nM after 8 hrs using DCFH-DA staining by FACS analysis (reference value: 2.4%). The class given is functional.
Experiment [27] deals with T98G. Briefly: Induction of apoptosis in human T98G cells assessed as early-stage apoptotic cells at 200 nM after 24 hrs using annexin V/propidium iodide staining by FACS analysis. The experiment is classed as functional.

Molecules are shown by their SMILES. Activity calls are given as the source filed them. The calls are words filed in the database; no cut-off is given here.

Experimental findings from ChEMBL document CHEMBL3751808, “Gambogic acid induces apoptotic cell death in T98G glioma cells” (Bioorg Med Chem Lett, 2016) are described below.

A word on the IC50: it is the concentration that gives 50% inhibition. Regarding `COc1cc(/C=C/C(=O)CC(=O)/C=C/c2ccc(O)c(OC)c2)ccc1O` [CURCUMIN], the IC50 with T98G [1] worked out at 10 µM; with T98G [2], 25 µM.
Take `COc1cccc2c1C(=O)c1c(O)c3c(c(O)c1C2=O)C[C@@](O)(C(=O)CO)C[C@@H]3O[C@H]1C[C@H](N)[C@H](O)[C@H](C)O1` [DOXORUBICIN]: in the experiment with T98G [1], the 50% inhibitory concentration (IC50) was 0.5 µM.
Compound `O=C(O[C@@H]1Cc2c(O)cc(O)cc2O[C@@H]1c1cc(O)c(O)c(O)c1)c1cc(O)c(O)c(O)c1` [EPIGALOCATECHIN GALLATE] had an IC50 with T98G [1] of 166 µM.
Consider `CC(C)=CCC[C@]1(C)C=Cc2c(O)c3c(c(CC=C(C)C)c2O1)O[C@]12C(=C[C@@H]4C[C@H]1C(C)(C)O[C@@]2(C/C=C(/C)C(=O)O)C4=O)C3=O` [GAMBOGIC ACID], for which the outcome in the experiment on T98G [3], in the experiment with T98G [4], with T98G [9], in the experiment with T98G [10], in the experiment on T98G [11] and in the experiment with T98G [13] was Active. For the same compound, the result with T98G [16], with T98G [19] and in the experiment with T98G [25] was Active. Also, the Activity entry is “Dose-dependent effect” in the experiment on T98G [1]; 6% in the experiment with T98G [5]; 8.57% with T98G [7]; 27.6% in the experiment with T98G [8]; 2.6% in the experiment on T98G [12]; “Dose-dependent effect” with T98G [14]. The Activity with T98G [15] is given as 36.5%; with T98G [17], 4%; with T98G [18], 5.8%; with T98G [20], 2.8%; in the experiment on T98G [21], 13.7%; in the experiment with T98G [22], 12.6%. The Activity in the experiment on T98G [23] turned out to be 76.6%; in the experiment on T98G [24], 33.4%; in the experiment with T98G [26], 38.5%; in the experiment on T98G [27], 32.3%. Also, the half-maximal inhibitory concentration (IC50) in the experiment with T98G [1] was at most 0.3 µM. Besides, the outcome in the experiment with T98G [6] was inactive.
